Earlier results, collected in patent publication US5449612A, “Process for identifying candida by means of chromogenic substances” (Serbio, priority 1990, dated 1995).

Legend:
[1] = system: β-D-glucosidase; details: Casal et al. 1983; Polachek et al. 1987; cited from earlier work
[2] = system: C. albicans, C. guillermondii, C. intermedia, C. lipolytica, C. lusitanica, C. parapsilosis, C. rugosa and C. zeylanoides; details: U.S. Pat. No. 4,874,695, Table IV; cited from earlier work
[3] = system: N-acetyl-β-D-glucosaminidase; details: Casal et al. 1983; Polachek et al. 1987; cited from earlier work

OC[C@H]1O[C@@H](Oc2ccc3cc(Br)ccc3c2)[C@H](O)[C@@H](O)[C@@H]1O [(6-bromo-β-naphthyl)-β-D-glucopyranoside]
reaction with isolated strains [1]: positive reaction

O=C(Nc1ccc([N+](=O)[O-])cc1)[C@@H]1CCCN1 [H-L-Pro-pNA]
sensitivity towards strains of Candida [2]: sensitive towards several strains of Candida

CC(=O)N[C@H]1[C@H](Oc2ccc3ccccc3c2)O[C@H](CO)[C@@H](O)[C@@H]1O [β-naphthyl-N-acetyl-β-D-glucosaminide]
reaction with isolated strains [3]: positive reaction
